# In patent publication US20110212968A1, “PHENETHYLAMIDE DERIVATIVES AND THEIR HETEROCYCLIC ANALOGUES” (priority 2008, published 2011):
# Tests used:
# [1] = biological target: T1, human orexin-1 receptor (Homo sapiens, UniProt O43613); assay: Intracellular calcium measurement (FLIPR Tetra), orexin receptor antagonistic activity, OX1; type: cell-based; settings: CHO cells expressing human orexin-1 receptor, 3 nM orexin-A, conditions B
# T1 construct: expressed in transfected cells; host or cells: CHO (Chinese hamster ovary) cells, kept under G418 selection
# T1 sequence (O43613 1-425): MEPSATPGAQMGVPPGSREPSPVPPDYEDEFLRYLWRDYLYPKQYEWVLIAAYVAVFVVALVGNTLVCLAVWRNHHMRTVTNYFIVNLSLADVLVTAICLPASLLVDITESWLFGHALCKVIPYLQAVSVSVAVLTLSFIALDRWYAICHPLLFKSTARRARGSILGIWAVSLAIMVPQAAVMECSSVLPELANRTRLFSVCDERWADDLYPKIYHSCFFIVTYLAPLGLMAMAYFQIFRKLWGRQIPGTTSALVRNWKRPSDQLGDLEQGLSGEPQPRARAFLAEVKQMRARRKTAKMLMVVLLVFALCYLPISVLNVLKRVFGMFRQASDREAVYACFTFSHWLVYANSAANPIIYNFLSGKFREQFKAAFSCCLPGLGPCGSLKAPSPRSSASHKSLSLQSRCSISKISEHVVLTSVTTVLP
# Protocol: (§1) The orexin receptor antagonistic activity of the compounds of formula (I) is determined in accordance with one of the following experimental methods.
# (§2) Chinese hamster ovary (CHO) cells expressing the human orexin-1 receptor and the human orexin-2 receptor, respectively, are grown in culture medium (Ham F-12 with L-Glutamine) containing 300 μg/ml G418, 100 U/ml penicillin, 100 μg/ml streptomycin and 10% heat inactivated fetal calf serum (FCS). The cells are seeded at 20,000 cells/well into 384-well black clear bottom sterile plates (Greiner). The seeded plates are incubated overnight at 37° C. in 5% CO2.
# (§3) Human orexin-A as an agonist is prepared as 1 mM stock solution in MeOH:water (1:1), diluted in HBSS containing 0.1% bovine serum albumin (BSA), NaHCO3: 0.375 g/l and 20 mM HEPES for use in the assay at a final concentration of 3 nM. Antagonists are prepared as 10 mM stock solution in DMSO, then diluted in 384-well plates, first in DMSO, then in HBSS containing 0.1% bovine serum albumin (BSA), NaHCO3: 0.375 g/l and 20 mM HEPES.
# (§4) On the day of the assay, 50 μl of staining buffer (HBSS containing 1% FCS, 20 mM HEPES, NaHCO3: 0.375 g/l, 5 mM probenecid (Sigma) and 3 μM of the fluorescent calcium indicator fluo-4 AM (1 mM stock solution in DMSO, containing 10% pluronic) is added to each well.
# (§5) The 384-well cell-plates are incubated for 50 min at 37° C. in 5% CO2 followed by equilibration at RT for 30-120 min before measurement.
# (§6) Within the Fluorescent Imaging Plate Reader (FLIPR Tetra, Molecular Devices), antagonists are added to the plate in a volume of 10 μl/well, incubated for 10 min and finally 10 μl/well of agonist is added. Fluorescence is measured for each well at 1 second intervals, and the height of each fluorescence peak is compared to the height of the fluorescence peak induced by 3 nM orexin-A with vehicle in place of antagonist. For each antagonist, the IC50 value (the concentration of compound needed to inhibit 50% of the agonistic response) is determined and may be normalized using the obtained IC50 value of a on-plate reference compound (normalized values in Table 1 are indicated by an asterisk *). With the FLIPR Tetra, two different conditions (conditions A and conditions B) were used, differing in adjustment of pipetting speed and cell splitting regime. The calculated IC50 values of the compounds may fluctuate depending on the daily cellular assay performance. Fluctuations of this kind are known to those skilled in the art.
# [2] = biological target: T2, human orexin-2 receptor (Homo sapiens, UniProt O43614); assay: Intracellular calcium measurement (FLIPR Tetra), orexin receptor antagonistic activity, OX2; type: cell-based; settings: CHO cells expressing human orexin-2 receptor, 3 nM orexin-A, conditions B
# T2 construct: expressed in transfected cells; host or cells: CHO (Chinese hamster ovary) cells, kept under G418 selection
# T2 sequence (O43614 1-444): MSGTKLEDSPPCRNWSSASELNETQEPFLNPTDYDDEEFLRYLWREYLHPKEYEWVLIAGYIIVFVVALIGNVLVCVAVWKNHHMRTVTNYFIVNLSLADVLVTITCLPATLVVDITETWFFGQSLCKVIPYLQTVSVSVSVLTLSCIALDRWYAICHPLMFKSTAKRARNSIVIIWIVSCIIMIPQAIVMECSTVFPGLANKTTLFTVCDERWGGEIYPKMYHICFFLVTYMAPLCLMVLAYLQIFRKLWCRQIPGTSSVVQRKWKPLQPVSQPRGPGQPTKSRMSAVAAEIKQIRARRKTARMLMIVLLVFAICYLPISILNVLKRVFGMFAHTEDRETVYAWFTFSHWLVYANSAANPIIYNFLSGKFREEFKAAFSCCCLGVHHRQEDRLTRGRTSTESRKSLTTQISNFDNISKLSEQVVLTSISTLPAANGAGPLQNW
# Protocol: as §1, §2, §3, §4, §5, §6
# [3] = normalized (*) using IC50 of on-plate reference compound
Structure (SMILES),"IC50 [1, 3]","IC50 [2, 3]",IC50 [1],IC50 [2]
"COc1ccc(-c2sc(C)nc2C(=O)N(CCO)CCc2c[nH]c3ccc(F)cc23)cn1 [Example 308, 5-(6-Methoxy-pyridin-3-yl)-2-methyl-thiazole-4-carboxylic acid [2-(5-fluoro-1H-indol-3-yl)-ethyl]-(2-hydroxy-ethyl)-amide]",357 nM,25 nM,–,–
"Cc1cccc(-c2sc(N)nc2C(=O)N(CCc2c[nH]c3c(F)cccc23)CC2CC2)c1 [Example 234, 2-Amino-5-m-tolyl-thiazole-4-carboxylic acid cyclopropylmethyl-[2-(7-fluoro-1H-indol-3-yl)-ethyl]-amide]",–,–,5 nM,16 nM
"Cc1cccc2c(CCN(CC3CC3)C(=O)c3nccnc3-c3ccccc3)c[nH]c12 [Example 326, 3-Phenyl-pyrazine-2-carboxylic acid cyclopropylmethyl-[2-(7-methyl-1H-indol-3-yl)-ethyl]-amide]",76 nM,8 nM,–,–
"Cc1cccc(-c2sc(N)nc2C(=O)N(CCc2c[nH]c3cccc(F)c23)CC2CC2)c1 [Example 231, 2-Amino-5-m-tolyl-thiazole-4-carboxylic acid cyclopropylmethyl-[2-(4-fluoro-1H-indol-3-yl)-ethyl]-amide]",–,–,9 nM,27 nM
"CCc1nc(I)cn1CCN(CC1CC1)C(=O)c1nc(N)sc1-c1cccc(C)c1 [Example 178, 2-Amino-5-m-tolyl-thiazole-4-carboxylic acid cyclopropylmethyl-[2-(2-ethyl-4-iodo-imidazol-1-yl)-ethyl]-amide]",–,–,739 nM,943 nM
"COc1ccc(CCN(CCO)C(=O)c2nc(C)sc2-c2ccc(C)c(C)c2)cc1OC [Example 126, 5-(3,4-Dimethyl-phenyl)-2-methyl-thiazole-4-carboxylic acid [2-(3,4-dimethoxy-phenyl)-ethyl]-(2-hydroxy-ethyl)-amide]",–,–,170 nM,4 nM
"COc1ccc(CCN(CC2CC2)C(=O)c2nc(C)sc2-c2ccc(C)c(C)c2)cc1SC [Example 201, 5-(3,4-Dimethyl-phenyl)-2-methyl-thiazole-4-carboxylic acid cyclopropylmethyl-[2-(4-methoxy-3-methylsulfanyl-phenyl)-ethyl]-amide]",–,–,21 nM,15 nM
"Cc1cccc(-c2sc(N)nc2C(=O)N(CCc2c[nH]c3ccc(Br)cc23)CC2CC2)c1 [Example 223, 2-Amino-5-m-tolyl-thiazole-4-carboxylic acid [2-(5-bromo-1H-indol-3-yl)-ethyl]-cyclopropylmethyl-amide]",–,–,5 nM,135 nM
"COCCN(CCc1ccc(OC)c(OC)c1)C(=O)c1nc(C)sc1-c1ccc(C)c(C)c1 [Example 129, 5-(3,4-Dimethyl-phenyl)-2-methyl-thiazole-4-carboxylic acid [2-(3,4-dimethoxy-phenyl)-ethyl]-(2-methoxy-ethyl)-amide]",–,–,40 nM,5 nM
"COc1ccc(-c2cccnc2C(=O)N(CCO)CCc2c[nH]c3ccc(F)cc23)cn1 [Example 318, 6′-Methoxy-[3,3′]bipyridinyl-2-carboxylic acid [2-(5-fluoro-1H-indol-3-yl)-ethyl]-(2-hydroxy-ethyl)-amide]",> 5420 nM,848 nM,–,–

# Further lines, results first:
"IC50 [1, 3]","IC50 [2, 3]",IC50 [1],IC50 [2],Structure (SMILES)
99 nM,53 nM,–,–,"Cc1ccc(-c2nccnc2C(=O)N(CCc2c[nH]c3c(F)cccc23)CC2CC2)cc1C [Example 340, 3-(3,4-Dimethyl-phenyl)-pyrazine-2-carboxylic acid cyclopropylmethyl-[2-(7-fluoro-1H-indol-3-yl)-ethyl]-amide]"
> 11100 nM,50 nM,–,–,"Cc1cccc2c(CCN(CC3CC3)C(=O)c3nccnc3-c3cncnc3)c[nH]c12 [Example 438, 3-Pyrimidin-5-yl-pyrazine-2-carboxylic acid cyclopropylmethyl-[2-(7-methyl-1H-indol-3-yl)-ethyl]-amide]"
18 nM,8 nM,–,–,"Cc1ccc(-c2nccnc2C(=O)N(CCc2cn(C)c3ccccc23)CC2CC2)cc1C [Example 330, 3-(3,4-Dimethyl-phenyl)-pyrazine-2-carboxylic acid cyclopropylmethyl-[2-(1-methyl-1H-indol-3-yl)-ethyl]-amide]"
404 nM,38 nM,–,–,"COCCOc1cccc(-c2sc(C)nc2C(=O)N(CCc2c[nH]c3ccccc23)CC(=O)OC)c1 [Example 587, ([2-(1H-Indol-3-yl)-ethyl]-{5-[3-(2-methoxy-ethoxy)-phenyl]-2-methyl-thiazole-4-carbonyl}-amino)-acetic acid methyl ester]"
104 nM,21 nM,–,–,"Cc1nc(C(=O)N(CCc2c[nH]c3ccc(F)cc23)CC2CC2)c(-c2ccc3cc[nH]c3c2)s1 [Example 430, 5-(1H-Indol-6-yl)-2-methyl-thiazole-4-carboxylic acid cyclopropylmethyl-[2-(5-fluoro-1H-indol-3-yl)-ethyl]-amide]"
–,–,156 nM,4 nM,"COc1ccc(CCN(CC2CC2)C(=O)c2cccnc2-c2cccc(C)c2)cc1OC [Example 394, N-Cyclopropylmethyl-N-[2-(3,4-dimethoxy-phenyl)-ethyl]-2-m-tolyl-nicotinamide]"
20 nM,37 nM,–,–,"COc1ccc(-c2cccnc2C(=O)N(CCc2cn(C)c3ccccc23)CC2CC2)cn1 [Example 352, 6′-Methoxy-[3,3′]bipyridinyl-2-carboxylic acid cyclopropylmethyl-[2-(1-methyl-1H-indol-3-yl)-ethyl]-amide]"
14 nM,30 nM,–,–,COc1ccc(-c2cccnc2C(=O)N(CCc2c[nH]c3ccc(C)cc23)CC2CC2)cn1 [Example 357]
–,–,286 nM,10 nM,"COc1ccc(CCN(CC2CC2)C(=O)c2cccnc2-c2ccc(C)cc2)cc1OC [Example 395, N-Cyclopropylmethyl-N-[2-(3,4-dimethoxy-phenyl)-ethyl]-2-p-tolyl-nicotinamide]"
–,–,108 nM,3 nM,"COc1cccc(-c2cccnc2C(=O)N(CCc2ccc(OC)c(OC)c2)CC2CC2)c1 [Example 393, 3-(3-Methoxy-phenyl)-pyridine-2-carboxylic acid cyclopropyl-methyl-[2-(3,4-dimethoxy-phenyl)-ethyl]-amide]"
352 nM,25 nM,–,–,"O=C(c1cncnc1-c1cccc(F)c1)N(CCc1c[nH]c2ccccc12)CC1CC1 [Example 510, 4-(3-Fluoro-phenyl)-pyrimidine-5-carboxylic acid cyclopropylmethyl-[2-(1H-indol-3-yl)-ethyl]-amide]"
